What was measured:
[1] = biological target: T1, wild-type ABCG2 (Homo sapiens, UniProt Q9UNQ0); assay: Hoechst 33342 dye extrusion in HeLa cells expressing wild-type ABCG2; format: cell-based; details: wild-type ABCG2, 0.2 µM Hoechst 33342, full inhibition by 1 µM Ko143
T1 construct: expressed in transfected cells; host or cells: HeLa (Sleeping Beauty transposon system)
T1 sequence (Q9UNQ0 1-655): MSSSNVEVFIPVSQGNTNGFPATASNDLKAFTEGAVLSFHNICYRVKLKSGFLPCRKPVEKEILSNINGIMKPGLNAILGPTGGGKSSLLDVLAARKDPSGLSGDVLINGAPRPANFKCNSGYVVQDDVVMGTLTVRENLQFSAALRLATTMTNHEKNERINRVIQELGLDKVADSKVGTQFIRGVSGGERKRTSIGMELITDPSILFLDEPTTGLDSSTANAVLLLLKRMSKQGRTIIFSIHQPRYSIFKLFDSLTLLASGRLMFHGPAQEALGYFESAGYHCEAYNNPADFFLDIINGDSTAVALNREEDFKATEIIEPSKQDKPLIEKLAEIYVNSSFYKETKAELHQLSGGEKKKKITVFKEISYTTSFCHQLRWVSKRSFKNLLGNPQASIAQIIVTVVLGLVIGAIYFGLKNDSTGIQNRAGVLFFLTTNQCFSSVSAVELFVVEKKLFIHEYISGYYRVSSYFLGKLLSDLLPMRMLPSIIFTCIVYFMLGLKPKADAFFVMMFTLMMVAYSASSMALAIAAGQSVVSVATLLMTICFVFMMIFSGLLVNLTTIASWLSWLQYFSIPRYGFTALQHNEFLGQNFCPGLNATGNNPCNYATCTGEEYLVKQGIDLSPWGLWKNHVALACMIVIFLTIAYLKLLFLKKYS

[2] = cited from earlier work
[3] = biological target: ABCB1/MDR1/Pgp (Homo sapiens, UniProt P08183); assay: biochemical; details: Estimated Transporter Inhibition IC50, ABCB1 vesicular assay, ATP-dependent NMQ uptake, HEK-293/ABCB1 inverted membrane vesicles; '-' = no inhibition
[4] = biological target: T2, ABCG2/BCRP (Homo sapiens, UniProt Q9UNQ0); assay: ABCG2-ATPase activity in Sf9 membrane vesicles; format: biochemical; parameters: expressed in transfected cells; host or cells: PLB-985; details: Sf9/ABCG2 membranes
T2 sequence (Q9UNQ0 1-655): T1 sequence (Q9UNQ0 1-655)
Experimental: ABC transporter ATPase activity was measured in Sf9 membrane vesicles containing the respective human ABC transporters [46, 47, 48, 49, 50]. For ABCG2/BCRP, the cholesterol level in the vesicles was increased to the level of mammalian cell membranes for full activity [49]. For ABCB1/Pgp 20 μg/150 μL and for ABCG2/BCRP 10 μg/150 μL, vesicles were incubated with 3 mM Mg-ATP for 25 min at 37 °C. The test drugs were dissolved in DMSO and 1 µL was added to the samples. The ABC transporter-related ATPase activity was determined and reference activators (50 µM verapamil for ABCB1 and 5 µM quercetin for ABCG2) served as controls.
Drug-stimulated ATPase activity of the ABCG2 transporter was also measured in the present study.

[5] = biological target: T3, OATP1A2 (Homo sapiens, UniProt P46721); assay: in vitro; details: A431 cells overexpressing OATP1A2, pH 7, probe sulforhodamine 101, 0.5 µM
T3 sequence (P46721 1-670): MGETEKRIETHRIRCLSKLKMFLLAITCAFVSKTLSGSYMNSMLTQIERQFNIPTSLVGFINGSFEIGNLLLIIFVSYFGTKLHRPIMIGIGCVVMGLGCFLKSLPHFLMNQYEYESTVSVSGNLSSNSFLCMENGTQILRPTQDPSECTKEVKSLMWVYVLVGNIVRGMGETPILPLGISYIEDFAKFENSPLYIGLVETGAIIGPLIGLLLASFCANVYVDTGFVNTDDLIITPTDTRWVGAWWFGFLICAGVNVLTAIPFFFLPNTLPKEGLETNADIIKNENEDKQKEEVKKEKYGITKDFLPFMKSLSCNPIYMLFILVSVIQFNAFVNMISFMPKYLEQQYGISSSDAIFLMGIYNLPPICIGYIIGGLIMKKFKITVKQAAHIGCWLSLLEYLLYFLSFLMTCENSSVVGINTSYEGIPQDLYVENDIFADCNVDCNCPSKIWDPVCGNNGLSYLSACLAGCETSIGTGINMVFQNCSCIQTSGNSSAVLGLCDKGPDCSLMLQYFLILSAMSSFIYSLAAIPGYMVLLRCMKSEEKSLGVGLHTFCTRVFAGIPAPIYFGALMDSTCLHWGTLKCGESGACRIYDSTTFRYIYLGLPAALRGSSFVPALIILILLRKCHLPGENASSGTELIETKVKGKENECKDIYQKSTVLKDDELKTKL

[6] = biological target: T4, OATP2B1 (Homo sapiens, UniProt O94956); assay: in vitro; details: A431 cells overexpressing OATP2B1, pH 5.5, probe pyranine, 20 µM
T4 sequence (O94956 1-709): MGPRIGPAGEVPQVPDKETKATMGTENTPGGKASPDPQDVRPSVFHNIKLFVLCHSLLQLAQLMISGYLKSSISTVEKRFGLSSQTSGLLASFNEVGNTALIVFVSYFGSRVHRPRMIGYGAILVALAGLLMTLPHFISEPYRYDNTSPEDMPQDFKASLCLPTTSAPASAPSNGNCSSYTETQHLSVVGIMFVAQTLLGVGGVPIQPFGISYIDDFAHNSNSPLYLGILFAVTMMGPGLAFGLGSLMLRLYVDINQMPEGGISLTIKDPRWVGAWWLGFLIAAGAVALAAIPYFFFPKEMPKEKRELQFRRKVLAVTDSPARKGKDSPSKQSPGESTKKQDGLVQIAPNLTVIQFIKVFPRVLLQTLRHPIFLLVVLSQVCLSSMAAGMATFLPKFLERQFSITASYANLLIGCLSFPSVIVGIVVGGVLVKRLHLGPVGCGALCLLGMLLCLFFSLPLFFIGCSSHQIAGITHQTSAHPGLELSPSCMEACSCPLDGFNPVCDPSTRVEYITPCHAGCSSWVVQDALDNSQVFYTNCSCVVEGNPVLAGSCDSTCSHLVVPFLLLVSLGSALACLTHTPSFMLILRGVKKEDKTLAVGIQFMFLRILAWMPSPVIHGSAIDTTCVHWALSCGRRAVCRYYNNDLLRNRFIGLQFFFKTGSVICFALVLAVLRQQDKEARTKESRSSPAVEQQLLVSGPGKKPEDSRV

[7] = biological target: T3, OATP1A2; details: based on the IC50 values

Sequence of ABCB1/MDR1/Pgp (P08183 whole entry): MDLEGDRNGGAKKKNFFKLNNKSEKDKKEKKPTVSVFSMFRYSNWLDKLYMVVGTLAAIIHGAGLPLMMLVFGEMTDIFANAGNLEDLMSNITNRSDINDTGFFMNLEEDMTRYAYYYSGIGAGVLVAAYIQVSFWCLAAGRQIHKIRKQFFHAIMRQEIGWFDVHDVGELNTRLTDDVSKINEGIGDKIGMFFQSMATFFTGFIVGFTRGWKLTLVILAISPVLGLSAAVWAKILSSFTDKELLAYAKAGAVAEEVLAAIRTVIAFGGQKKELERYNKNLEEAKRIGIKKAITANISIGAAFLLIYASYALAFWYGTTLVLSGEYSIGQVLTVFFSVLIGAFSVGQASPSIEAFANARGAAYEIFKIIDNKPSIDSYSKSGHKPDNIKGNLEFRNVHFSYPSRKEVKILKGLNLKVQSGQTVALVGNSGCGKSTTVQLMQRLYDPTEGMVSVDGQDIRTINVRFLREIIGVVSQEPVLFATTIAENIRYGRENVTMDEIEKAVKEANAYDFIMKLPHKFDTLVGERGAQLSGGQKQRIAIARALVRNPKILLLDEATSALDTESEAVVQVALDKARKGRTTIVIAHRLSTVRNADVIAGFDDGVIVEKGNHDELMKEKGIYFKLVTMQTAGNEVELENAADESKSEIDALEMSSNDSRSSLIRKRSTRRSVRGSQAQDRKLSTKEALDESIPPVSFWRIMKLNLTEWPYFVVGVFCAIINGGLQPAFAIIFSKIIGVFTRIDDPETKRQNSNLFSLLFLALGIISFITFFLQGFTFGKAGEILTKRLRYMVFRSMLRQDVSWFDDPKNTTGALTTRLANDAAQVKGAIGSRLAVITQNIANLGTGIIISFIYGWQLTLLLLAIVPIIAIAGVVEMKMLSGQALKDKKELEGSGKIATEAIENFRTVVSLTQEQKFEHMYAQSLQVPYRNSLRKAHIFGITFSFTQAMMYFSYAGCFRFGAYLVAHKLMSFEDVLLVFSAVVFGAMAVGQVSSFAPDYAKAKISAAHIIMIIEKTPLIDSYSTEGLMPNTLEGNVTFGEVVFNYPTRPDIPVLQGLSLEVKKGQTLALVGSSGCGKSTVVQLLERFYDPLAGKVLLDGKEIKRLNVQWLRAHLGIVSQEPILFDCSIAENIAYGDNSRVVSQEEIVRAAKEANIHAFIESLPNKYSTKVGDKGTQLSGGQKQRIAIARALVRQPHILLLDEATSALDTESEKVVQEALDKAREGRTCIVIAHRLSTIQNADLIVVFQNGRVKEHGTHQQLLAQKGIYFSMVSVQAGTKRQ

SMILES: CCC(CC)COC(=O)[C@H](C)N[P@](=O)(OC[C@H]1O[C@@](C#N)(c2ccc3c(N)ncnn23)[C@H](O)[C@@H]1O)Oc1ccccc1 [remdesivir]
- Effect on Hst dye extrusion by ABCG2 in HeLa cells (in words) [1]: slight effect at relatively high concentrations
- Plasma concentration, peak values [2]: 3000 to 5000 nM
- Reported peak plasma concentration ([2]; reported, reference not given): about 5 μM
- IC50 [3]: > 20 µM
- Concentration at which baseline ABCG2-ATPase activity was inhibited [4]: 20 to 50 µmol
- Effect on baseline ABCG2-ATPase activity (in words) ([4]; ivermectin, ritonavir, lopinavir at low micromolar, remdesivir at higher concentrations): significantly inhibited

SMILES: NC(=O)c1nc(F)c[nH]c1=O [favipiravir]
- IC50 at 10 min [5]: > 50 µM
- IC50 at 15 min [6]: > 50 µM

SMILES: CCN(CCO)CCCC(C)Nc1ccnc2cc(Cl)ccc12 (stereo not drawn) [hydroxychloroquine]
- Fold lower affinity for OATP1A2 than lopinavir, ritonavir, remdesivir and ivermectin [7]: 3–10 fold

From PMC7827085 (Pharmaceutics, 2021)
